These results are taken from patent publication US11207277B2, “Methods of treating diseases associated with high-fat diet and vitamin a deficiency using retinoic acid receptor agonists” (Cornell University, priority 2013, dated 2021).

Test [1] concerns hepatocyte lipid accumulation. Briefly: Hematoxylin and eosin staining of liver sections (hepatic steatosis). The class given is in vivo. The note with it: HF diet mice 4 months + AC261066 or CD1530; vs HF-vehicle. The text has this: (§1) WT male C57/BL6 male mice were maintained on either a standard laboratory chow-fed diet (CFD) with 13% kcal fat, (diet #5053, Lab Diet, Inc, St. Louis, Mo.) or a high fat, western style diet (HFD) with 60% kcals from fat, (diet #58126, Lab Diet, Inc., St. Louis, Mo.) for 4 months. One month after the start of the high fat diet treatment, the high fat diet group was further split into 2 groups for 3 months: i) high fat diet and the drinking water containing 1% DMSO; ii) high fat diet and the drinking water containing 1.5 mg/100 ml AC261066, a specific RARβ agonist. Then mice were sacrificed by cervical dislocation. Blood and various tissue samples were harvested.
At sacrifice, fresh mouse liver samples were fixed in 4% formaldehyde solution for 24 hr and embedded in paraffin blocks. Liver paraffin sections were cut 5 microns thick and mounted on glass slides and stained with hematoxylin and eosin (H and E) using standard protocols.

For another test, the system named is SREBP1-c. Briefly: Semi-quantitative PCR liver, SREBP1-c. The note with it: HF diet mice + AC261066 or CD1530. In kind it is in vivo.
Excerpt: as §1
(§2) Total RNA was extracted from mouse tissues using TRIzol reagent (Life technologies) and (1 μg) was used to synthesize cDNA. cDNA synthesis was performed at 42° C. for 1 h in a final volume of 20 μl using qScript (Quanta, MD). Semi-quantitative PCR were performed Taq DNA polymerase (Invitrogen, CA). Three step PCR was run as follows: 94° C. for 30 s, 58-64° C. for 45 s for primer annealing and 72° C. for 1 min for primer extension. The number of cycles for each primer pair for amplification in the linear range was determined experimentally. PCR products were resolved 2% agarose gels and visualized by staining with ehtidium bromide. Primers for gene expression used were as follows: […]

Another test concerns TNF-α. Put plainly: Semi-quantitative PCR liver, TNF-α. In kind it is in vivo. The note with it: HF diet mice + AC261066 or CD1530.
Excerpt: as §1, §2

In a further test the test system is α-SMA. Briefly: α-SMA immunofluorescence of liver sections (hepatic stellate cell activation). The class given is in vivo. Conditions: HF diet mice + AC261066 or CD1530; vs HF-vehicle.
Excerpt: as §1
Staining. Fresh mouse liver samples were embedded in optimal cutting temperature (OCT) medium and immediately frozen to −70 centigrade. Cryosections were then fixed in 4% formaldehyde for 1 hr at room temp. Slides were then rinsed three times in deionized water (dH2O) for 30 s, followed by treatment with 0.5% Triton X-100 in PBS for 5 min. Sections were then washed three times with PBS for 5 min. Samples were with incubated 2% bovine serum albumin (BSA) for 30 min at room temperature to block for unspecific antibody binding. Following blocking, sections were washed three times in PBS and incubated with mouse monoclonal antibody against α-SMA (1:500) (Dako, Inc) for 24 h at 4° C. After 24 h sections were washed three times in PB and incubated with Alexa-Flour-488 anti-mouse secondary anti-body (1:500) (Invitrogen, Inc) for 30 min at room temperature. Sections were then washed three times in PBS and incubated with working strength oil-red O solution for 30 minutes at room temperature. Sections were then rinsed for 30 minutes under running tap water and cover-slipped with Vectashield hard mount plus DAPI (Vector Labs, Inc).

The next test concerns renal lipid accumulation. Put plainly: Hematoxylin and eosin staining of kidney sections. The class given is in vivo. Conditions: HF diet mice + AC261066 or CD1530; vs HF-vehicle.
Excerpt: as §1
At sacrifice, fresh mouse liver samples were fixed in 4% formaldehyde solution for 24 hr and embedded in paraffin blocks. Kidney paraffin sections were cut 5 microns thick and mounted on glass slides and stained with hematoxylin and eosin (H and E) using standard protocols.

In test [2] the test system is retinyl palmitate and retinol. Put plainly: HPLC analysis of liver retinoids. The class given is in vivo, mice.
Excerpt: as §1
The frozen liver tissue samples (˜100 mg) were homogenized in 500 μl cold phosphate-buffered saline (PBS). In addition, 100 μl serum was diluted in cold PBS to total volume of 500 μl. Retinyl acetate was added to each sample before the retinoid extraction for the calculation of extraction efficiency. The retinoids were extracted into 350 μl of organic solution (acetonitrile/butanol, 50:50, v/v) in the dark. The high performance liquid chromatography (HPLC) was performed using a Waters Millennium system (Waters). Each sample (100 μl of the 350 μl) was loaded onto an analytical 5-μm reverse phase C18 column (Vydac, Hesperia, Calif.) and eluted at a flow rate of 1.5 ml/min. Two mobile phase gradient systems were used. Retinoids were identified by HPLC based on two criteria: an exact match of the retention times of unknown peaks with those of authentic retinoid standards and identical UV light spectra (220-400 nm) of unknowns against spectra from authentic retinoid standards during HPLC by the use of a photodiode array detector. The amounts of retinoids were calculated from the areas under the peaks detected at the wave-length of 325 nm. The levels of retinol and retinyl esters were normalized to the tissue weight.

In another test the test system is hepatic lipids. Briefly: Oil red O staining of liver sections. In kind it is in vivo. Conditions: HF diet mice + AC261066 or CD1530; vs HF-vehicle.
Excerpt: as §1
Staining. Fresh mouse liver samples were embedded in optimal cutting temperature (OCT) medium and immediately frozen to −70 centigrade. Cryosections were then fixed in 4% formaldehyde for 1 hr at room temp. Slides were then rinsed three times in deionized water (dH2O) for 30 s, followed by treatment with 0.5% Triton X-100 in PBS for 5 min. Sections were then washed three times with PBS for 5 min. Samples were with incubated 2% bovine serum albumin (BSA) for 30 min at room temperature to block for unspecific antibody binding. Following blocking, sections were washed three times in PBS and incubated with mouse monoclonal antibody against α-SMA (1:500) (Dako, Inc) for 24 h at 4° C. […]

For a further test, the system named is MCP-1. Briefly: Semi-quantitative PCR liver, MCP-1. In kind it is in vivo. The note with it: HF diet mice + AC261066 or CD1530.
Excerpt: as §1, §2

A further test concerns RARβ. Put plainly: RT-PCR of RARβ in RA-treated ES cells. In kind it is cell-based, mouse. The note with it: WT ES cells, presence of RA vs untreated. The protocol: (§3) Mouse J1 wild-type FS cells were cultured as described previously (27). C57BL/6 RARβ heterozygous mice were provided by Dr. Pierre Chambon (Strasbourg-Cedex, France) (26). Homozygous RARβ-null mice were obtained following mating of RARβ heterozygous mice. Blastocysts were harvested on day E3.5 and individually cultured on ES cell medium as previously described (28). Various markers for endodermal (day 5), pancreatic progenitor (day 11), endocrine progenitor (day 14) and endocrine (day 17) differentiation were analyzed by semi-quantitative RT-PCR in J1 wild-type and RARβ KO ESCs. Primers were designed around introns whenever possible. Total RNA extraction, semi-quantitative and quantitative PCR reactions were performed as previously described (18). Amplified PCR products were resolved on 1.5% agarose gels and visualized by staining with ethidium bromide. PCR bands were sequenced for verification of the correct amplicon. Quantitation of semi-quantitative gels was performed using ImageJ software (National Institutes of Health) from three experimental biological repeats.

A further test concerns Cyp26a1. Briefly: RT-PCR of Cyp26a1 in RA-treated WT and RARβ KO ES cells. In kind it is cell-based, mouse. On the procedure: as §3
[3] abbreviates: HF diet mice + AC261066 or CD1530 vs controls.

Entries after “also recorded” stand apart in the source; their conditions may differ.

`O=C(O)c1ccc(-c2ccc3cc(O)c(C45CC6CC(CC(C6)C4)C5)cc3c2)cc1` [CD1530]: in test [1], the “hepatocyte lipid infiltration / hepatic steatosis (H and E)” value is reported as “no decrease in hepatic lipid accumulation”. Also, the “mRNA levels of SREBP1-c in liver” value in the test with SREBP1-c is recorded as “markedly higher”. The “mRNA levels of TNF-α in liver” value in the test on TNF-α was “markedly elevated”. Moreover, the “α-SMA positive staining in liver (HSC activation)” value in the test on α-SMA is given as “no evidence decreased lipid accumulation or α-SMA expression intensity or patterns”. In addition, in the test on renal lipid accumulation, the “renal lipid infiltration/accumulation (H and E)” value is listed as “no decrease in renal lipid accumulation”. Further, in [2] (setting [3]), the “liver retinol compared to controls” value is listed as “significantly lowered” and the “liver retinyl palmitate compared to controls” value is recorded as “significantly lowered”. In test [2] (HF diet mice + CD1530), the “retinyl palmitate levels in the liver lower than HF-vehicle treated mice” value is listed as roughly 48%. For the same molecule, in the test with hepatic lipids, the “hepatic lipid accumulation (oil red O)” value is listed as “not observed; also recorded: no evidence decreased lipid accumulation”. For the same molecule, in the test with MCP-1, the “mRNA levels of MCP-1 in liver” value was “markedly elevated”.
Take `CC1=C(/C=C/C(C)=C/C=C/C(C)=C/C(=O)O)C(C)(C)CCC1` [RA, all trans-retinoic acid]: the RARβ transcript signal entry in the test with RARβ was “stronger RARβ signal”. In the test on Cyp26a1, the Cyp26a1 expression entry is “RA-dependent Cyp26a1 expression was observed in both WT and RARβ KO ES cells”.
